The values that follow come from US20220411362A1, “DITERPENOID COMPOUNDS THAT ACT ON PROTEIN KINASE C (PKC)” (K-Gen, Inc., priority 2019, published 2022).

For one experiment, the target named is T1, C1b domain of human PKCθ (Homo sapiens, UniProt Q04759).
T1 construct: Genes encoding C1b domains of human PKCα, δ, ε, θ, and PKD1 (PKCμ) were synthesized; made in house; host or cells: E. coli BL21(DE3)
T1 sequence (Q04759 231-281 limits assumed): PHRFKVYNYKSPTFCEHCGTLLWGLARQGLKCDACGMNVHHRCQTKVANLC
As to the kind of experiment: Competitive 3H-PDBu binding to C1b domain of PKCθ. Here is the method:
(§1) Compounds described in this disclosure were tested for binding affinity to C1b domain of PKC isoforms. Compound binding affinity to C1b domain of PKC isoforms was derived from competitive binding assay using radioactive tracer ^3H-PDBu and recombinant GST-C1b or full-length of human PKC proteins based on modified procedures from Methods in Molecular Biology, vol.
(§2) Genes encoding C1b domains of human PKCα, δ, ε, θ, and PKD1 (PKCμ) were synthesized and inserted into pGEX-2TK or pGEX-4T1 vectors for expression and production of GST-C1b proteins in E. coli BL21(DE3) via IPTG induction. The target proteins were purified by glutathione sepharose 4B and followed by ion exchange chromatography if needed to achieve purity >70%. Aliquots of the purified proteins were stored at −80 degree for binding assay (storage buffer: 20 mM Tris pH 8.0, 200 mM NaCl, 10% glycerol, 1 mM DTT).
(§3) The plate was incubated at 37° C. on a shaker at 300 rpm for 10 minutes and then put on ice for 20 minutes. […] The bottom of the filter plate was sealed and 50 μL of MicroScint-20 (PerkinElmer) cocktail was added to each well. ^3H-PDBu trapped in each well was counted using PerkinElmer MicroBeta2 Reader. Data were analyzed using GraphPad Prism5 with the model “log(inhibitor) vs. response-variable slope” to fit the IC50, and then IC50 was transformed to Ki using Cheng-Prusoff equation: Ki=IC50/(1+added radio ligand/Kd). Kd is the binding affinity of each protein preparation to ^3H-PDBu, determined experimentally.

Experiment [1] concerns Namalwa (Lymphoma) cell line. As to the kind of experiment: Proliferation of Namalwa. It counts as cell-based. Conditions: for ratio of (IC50 of K01)/(IC50 of compound), Namalwa: value in parenthesis; for IC50: read-out: IC50 in μM Namalwa (Lymphoma). The procedure: (§4) The diterpenoid compounds were tested in A549, a non-small cell lung cancer cell line harboring a K-Ras activating mutation. Briefly, A549 cells at a density of 1,000 cells/well were seeded in 96-well plates and incubated at 37° C. for 24 hours. A series of different concentrations of compound stocks (500×) were prepared by 3-fold serial dilution in DMSO. These compounds were further diluted in culture media and then added to cells so that the final DMSO concentration was not exceeding 0.25%. After 96 hours of incubation, 50 μL of CellTiter Glo reagent (Promega) was added to each well and luminescence was measured after 10 minutes using EnVision (PerkinElmer). Luminescence from cells treated with DMSO alone was set as Max and % of inhibition was calculated as follows: Inhibition %=(Max−Sample value)/Max×100. Data was analyzed using XL-fit software (ID Business Solutions Ltd.) and IC50, relative IC50, and % of top inhibition was calculated. Some of the compounds in this disclosure were very potent in blocking proliferation of A549 lung cancer cells at low nM range. In addition, potency of inhibiting A549 proliferation correlated well with its binding affinity to PKCs for this series of compounds. In other words, higher affinity binders had stronger inhibitory effects on A549 proliferation. This further support the notion that activation, rather than inhibition, of certain PKC isoforms is required to block proliferation of cancer cells, some of which may harbor K-Ras mutations. This is in sharp contrast to previous literature and common belief that inhibition of PKC is necessary to block cancer cell growth (Kang, 2014, New Journal of Science, 2014:1-36). Data presented here is in agreement with recent findings that many loss-of-function but not gain-of-function mutations of PKC isoforms have been identified in many human cancers (Antal et al., 2015, Cell, 160:489-502).
(§5) The compounds in this disclosure were tested for their potency in blocking proliferation of a few other cancer cells lines, including K-Ras mutant pancreatic cell lines Panc2.13 and KP-4, leukemia cell line HL-60, and lymphoma cell lines Namalwa and Mino. Similar procedures as in Example 67 were followed. Initial cell numbers seeded in 96-well plates were different for different cell lines: 3000 cells/well for Panc2.13; 800-1000 cells/well for KP-4; 5000 cells/well for HL-60; 5000-10000 cells/well for Namalwa and Mino. A ratio ratio of (IC50 of K01)/(IC50 of compound) (data in parenthesis in Table 5) was used to normalize the compound potency from different assay batches to a common comparator […].

In experiment [2] the test system is HL-60 (Leukemia) cell line. As to the kind of experiment: Proliferation of HL-60. It counts as cell-based. The procedure: as §4, §5
For experiment [3], the target named is T2, C1b domain of human PKD1 (PKCμ) (Homo sapiens, UniProt Q15139).
T2 construct: Genes encoding C1b domains of human PKCα, δ, ε, θ, and PKD1 (PKCμ) were synthesized; made in house; host or cells: E. coli BL21(DE3)
T2 sequence (Q15139 270-320 limits assumed): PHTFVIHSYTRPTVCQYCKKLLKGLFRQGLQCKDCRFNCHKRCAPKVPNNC
In words: biochemical. It is filed as binding. Here is the method:
as §1, §2, §3

Experiment [4] relates to Mino (Lymphoma) cell line. In words: Proliferation of Mino. It is filed as cell-based. The procedure:
as §4, §5

A further experiment deals with T3, C1b domain of human PKCδ (Homo sapiens, UniProt Q05655).
T3 construct: Genes encoding C1b domains of human PKCα, δ, ε, θ, and PKD1 (PKCμ) were synthesized; made in house; host or cells: E. coli BL21(DE3)
T3 sequence (Q05655 230-280 limits assumed): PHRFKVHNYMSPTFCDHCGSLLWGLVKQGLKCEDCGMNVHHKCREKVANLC
As to the kind of experiment: Competitive 3H-PDBu binding to C1b domain of PKCδ. Conditions: 3H-PDBu competition. Here is the method:
as §1, §2, §3

The subject of experiment [5] is A549 non-small cell lung cancer cell line. In words: Proliferation of A549 (CellTiter Glo). It is filed as cell-based. The following applies: Homo sapiens, read-out: IC50 μM (A549 Cell Line). The procedure: as §4
The next experiment concerns the target T4, C1b domain of human PKCε (Homo sapiens, UniProt Q02156).
T4 construct: Genes encoding C1b domains of human PKCα, δ, ε, θ, and PKD1 (PKCμ) were synthesized; made in house; host or cells: E. coli BL21(DE3)
In words: Competitive 3H-PDBu binding to C1b domain of PKCε. The procedure:
as §1, §2, §3

The target of a further experiment is T5, C1b domain of human PKCα (Homo sapiens, UniProt P17252).
T5 construct: Genes encoding C1b domains of human PKCα, δ, ε, θ, and PKD1 (PKCμ) were synthesized; made in house; host or cells: E. coli BL21(DE3)
As to the kind of experiment: biochemical. It counts as binding. The following applies: 3H-PDBu competition. The procedure: as §1, §2
The plate was incubated at 37° C. on a shaker at 300 rpm for 10 minutes and then put on ice for 20 minutes. […] The bottom of the filter plate was sealed and 50 μL of MicroScint-20 (PerkinElmer) cocktail was added to each well. ^3H-PDBu trapped in each well was counted using PerkinElmer MicroBeta2 Reader. […] Kd is the binding affinity of each protein preparation to ^3H-PDBu, determined experimentally.

The mark [6] stands for this setting: Homo sapiens, HL-60, read-out: IC50 in μM HL-60 (Leukemia).
[7] abbreviates: Homo sapiens, MINO, read-out: IC50 in μM Mino (Lymphoma).

Like-named read-outs stand apart in the source and are kept apart here.

T4 sequence (Q02156 242-292 limits assumed): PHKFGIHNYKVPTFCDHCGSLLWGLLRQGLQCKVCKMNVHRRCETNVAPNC

Turning to `CC1=C[C@H]2[C@@]3(O)[C@H](C)C[C@]4(OC(=O)CCC5CCCC5)[C@H]([C@@H]3C=C(CO)C[C@]2(O)C1=O)C4(C)C` [Compound K101-C1301], the Ki at C1b domain of human PKCθ is 1 to 30 nM; in experiment [3], less than 5 nM; at C1b domain of human PKCδ (Ki PKCδ), 5 to 10 nM; at C1b domain of human PKCε it was 5 to 10 nM; on C1b domain of human PKCα (Ki PKCα), 100 to 200 nM. The “ratio of (IC50 of K01)/(IC50 of compound), Namalwa” value (“ratio … Namalwa” below) in experiment [1] is 1.73. Also, the concentration for half-maximal inhibition (IC50) (in general, the concentration that gives 50% inhibition) in experiment [1] is 0.03 to 0.06 µM; in experiment [2] (setting [6]), 0.03 to 0.06 µM; in [4] (setting [7]) it was 0.001 to 0.01 µM; in experiment [5] (A549, 96 h) it was 0.03 to 0.06 µM. In addition, the “ratio of (IC50 of K01)/(IC50 of compound), HL-60” value (“ratio … HL-60” for short) in [2] (HL-60; value in parenthesis) stood at 9.23. Moreover, in experiment [4] (Mino; value in parenthesis), the “ratio of (IC50 of K01)/(IC50 of compound), Mino” value (“ratio … Mino” below) is 11.

As for `CC1=C[C@H]2[C@@]3(O)[C@H](C)C[C@]4(OC(=O)Cc5ccccc5)[C@H]([C@@H]3C=C(CO)C[C@]2(O)C1=O)C4(C)C` [Compound K101-C1304], the Ki on C1b domain of human PKCθ (C1b domain of human PKCθ, 3H-PDBu competition, read-out: Ki PKCθ) was 5 to 10 nM; in [3] (C1b domain of human PKD1 (PKCμ), 3H-PDBu competition, read-out: Ki PKD1/PKCμ), less than 5 nM; at C1b domain of human PKCδ (read-out: Ki PKCδ) it was 5 to 10 nM; on C1b domain of human PKCε (C1b domain of human PKCε, 3H-PDBu competition, read-out: Ki PKCε), 1 to 30 nM; at C1b domain of human PKCα (read-out: Ki PKCα) it was 100 to 200 nM. The “ratio … Namalwa” value in [1] is reported as 3.29. Further, the IC50 in experiment [1] was 0.01 to 0.03 µM; in [2] (Homo sapiens, HL-60; read-out: IC50 in μM HL-60 (Leukemia)), 0.01 to 0.03 µM; in experiment [4] (Homo sapiens, MINO; read-out: IC50 in μM Mino (Lymphoma)), 0.001 to 0.01 µM; in experiment [5] (A549, 96 hours incubation, CellTiter Glo), 0.03 to 0.06 µM. Further, in experiment [2] (HL-60; value in parenthesis), the “ratio … HL-60” value is 18. In addition, the “ratio … Mino” value in [4] (Mino; value in parenthesis) stood at 15.6.

As to `CC1=C[C@H]2[C@@]3(O)[C@H](C)C[C@]4(OC(=O)[C@H](N)C(C)(C)c5ccc(C(F)(F)F)cc5)[C@H]([C@@H]3C=C(CO)C[C@]2(O)C1=O)C4(C)C` [Compound K101-C134901], the Ki is 1 to 30 nM on C1b domain of human PKCθ; 5 to 10 nM in experiment [3]; 1 to 30 nM on C1b domain of human PKCδ (Ki PKCδ); 1 to 30 nM at C1b domain of human PKCε; 200 to 400 nM at C1b domain of human PKCα (Ki PKCα). Besides, the “ratio … Namalwa” value in experiment [1] amounted to 0.49. The IC50 in experiment [1] was 0.1 to 0.2 µM; in [2] (setting [6]), 0.1 to 0.2 µM; in [4] (setting [7]), 0.01 to 0.03 µM; in [5] (A549, 96 h) it was 0.2 to 0.6 µM. Moreover, in experiment [2] (HL-60; value in parenthesis), the “ratio … HL-60” value is 2.75. Also, in [4] (Mino; value in parenthesis), the “ratio … Mino” value turned out to be 3.88.

With `CC1=C[C@H]2[C@@]3(O)[C@H](C)C[C@]4(OC(=O)CC5CC6(C5)CN(C(=O)OC(C)(C)C)C6)[C@H]([C@@H]3C=C(CO)C[C@]2(O)C1=O)C4(C)C` [Compound K101-C1312], the Ki was 1 to 30 nM on C1b domain of human PKCθ; less than 5 nM in [3]; 5 to 10 nM on C1b domain of human PKCδ (Ki PKCδ); 1 to 30 nM at C1b domain of human PKCε; 100 to 200 nM at C1b domain of human PKCα (Ki PKCα). The IC50 in experiment [5] (A549, 96 h) is 0.03 to 0.06 µM.

Regarding `CC1=C[C@H]2[C@@]3(O)[C@H](C)C[C@]4(OC(=O)[C@@H](N)CCCCCCc5ccc(C(F)(F)F)cc5)[C@H]([C@@H]3C=C(CO)C[C@]2(O)C1=O)C4(C)C` [Compound K101-C135902], the Ki at C1b domain of human PKCθ is 1 to 30 nM; in experiment [3] it was 5 to 10 nM; on C1b domain of human PKCδ (Ki PKCδ) it was 5 to 10 nM; at C1b domain of human PKCε, 1 to 30 nM. For the same compound, the half-maximal inhibitory concentration (IC50) in experiment [5] (A549, 96 h) was 0.01 to 0.03 µM. Besides, the “Ki PKCα” value on C1b domain of human PKCα was “E (E=>60 nM and ≤10 nM)”.
